Measurements: patent US20240381872A1, “SUBSTITUTED 2,3-DIHYDRO[1,3]THIAZOLO[4,5-B]PYRIDINES, SALTS THEREOF AND THEIR USE AS HERBICIDALLY ACTIVE SUBSTANCES” (BAYER AKTIENGESELLSCHAFT, priority 2021, published 2024)

How the values were obtained:
Type in all cases: in vivo
[1] = system: Digitaria sanguinalis (DIGSA); experiment: Herbicidal pre-emergence action, section A (Table A12); settings: for pest or weed control at 1280 g/ha: Digitaria sanguinalis, 504 h, read-out: pre-emergence activity against DIGSA in %
Summary of the method: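 Double sowings in sandy loam; soil-surface spray of WP/EC aqueous preparations, 0.5% additive, 600 l/ha water. Greenhouse, optimum conditions. Visual % damage at ~3 wk vs untreated (100% = dead, 0% = control-like).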

[2] = system: Triticum aestivum (TRZAS); experiment: Post-emergence effects on crop plants, section F (Table F2); settings: for post-emergence activity against TRZAS in %: crop plant damage
Summary of the method: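 After sowing in sandy loam and 2–3 weeks' greenhouse growth, single-leaf plants received foliar sprays (WP or EC, 0.5% additive, 600 l/ha water, ≤320 g/ha). Around 3 weeks on, herbicidal effect was estimated by eye, 0% meaning like controls and 100% meaning plants died.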

[3] = system: Digitaria sanguinalis (DIGSA); experiment: Herbicidal post-emergence action, section B (Table B12); settings: visual rating about 3 weeks after treatment vs untreated controls
Summary of the method: (§1)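 Weeds were sown in sandy loam and grown in a greenhouse, then sprayed at the one-leaf stage 2 to 3 weeks after sowing. Compounds, formulated as WP or EC, went on as aqueous suspension or emulsion with 0.5% additive at 600 liters per hectare. Visual rating after about 3 weeks against untreated controls (100% = plants dead, 0% = like controls).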

Stellaria media (STEME) = experiment: Herbicidal post-emergence action, section B (Table B9); settings: visual rating about 3 weeks after treatment vs untreated controls
Summary of the method: as §1

[4] = system: Echinochloa crus-galli (ECHCG); experiment: Herbicidal post-emergence action, section B (Table B3); settings: rated visually after about 3 weeks
Summary of the method: as §1

[5] = system: Amaranthus retroflexus (AMARE); experiment: Herbicidal post-emergence action, section E (Table E3); settings: assessed visually after ca. 3 weeks; for post-emergence activity against AMARE in %: application rate 320 g/ha
From the text: Seeds of mono- and dicotyledonous weed plants and crop plants were sown, in plastic or organic planting pots, in sandy loam, covered with soil and grown in a greenhouse under controlled growth conditions. 2 to 3 weeks after sowing, the test plants were sprayed in the single-leaf stage. The compounds according to the invention, formulated in form of wettable powders (WP) or as emulsifiable concentrates (EC), were sprayed onto the green plant parts as aqueous suspension or emulsion, with the addition of 0.5% of an additive, at an application rate of 600 l of water/ha (converted). The test plants were placed in the greenhouse for ca. 3 weeks under optimum growth conditions, and then the effect of the preparations was assessed visually in comparison with untreated controls (herbicidal effect in percent (%): 100% effect=plants have died off, 0% effect=as control plants).

[6] = system: Amaranthus retroflexus (AMARE); experiment: Herbicidal pre-emergence action, section C (Table C11); settings: visual grading after ca. 3 weeks; for pest or weed control at 80 g/ha: Amaranthus retroflexus, pre-emergence, 504 h, read-out: pre-emergence activity against AMARE in %
Summary of the method: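 Greenhouse pre-emergence test on sandy loam: spray of formulated compound onto covering soil at 600 l water/ha, then percent damage judged by eye after ca. 3 weeks relative to untreated pots.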

Glycine max (GLXMA) = experiment: Pre-emergence effects on crop plants, section D (Table D4); settings: visual grading after ca. 3 weeks
Summary of the method: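 Formulated compound (wettable powder or emulsifiable concentrate) was applied pre-emergence to the soil surface at 320 g/ha or lower. Greenhouse-grown plants were rated visually for percent damage after ca. 3 weeks.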

[7] = Echinochloa crus-galli, 504 h, application rate 1280 g/ha, read-out: post-emergence activity against ECHCG in %
[8] = Stellaria media, post-emergence, 504 h, application rate 1280 g/ha, read-out: post-emergence activity against STEME in %
[9] = Triticum aestivum, 504 h, application rate 320 g/ha, read-out: post-emergence activity against TRZAS in %

COC(=O)CCC(=O)N1CSc2cc(Cl)c(-c3ccccc3F)nc21 [Example I-003]
pre-emergence activity against DIGSA in % ([1]; application rate 1280 g/ha): 100%
post-emergence activity against TRZAS in % ([2]; application rate 320 g/ha): 0%
post-emergence activity against DIGSA in % ([3]; application rate 1280 g/ha): 100%
post-emergence activity against STEME in % (Stellaria media (STEME); application rate 1280 g/ha): 90%

Cc1cc2c(nc1-c1ccccc1F)NCS2 [Example I-007, 5-(2-fluorophenyl)-6-methyl-2,3-dihydro[1,3]thiazolo[4,5-b]pyridine]
pest or weed control at 1280 g/ha [4, 7]: 90%
pest or weed control at 80 g/ha ([5]; Amaranthus retroflexus, post-emergence, 504 h, application rate 80 g/ha, read-out: post-emergence activity against AMARE in %): 80%
pest or weed control at 1280 g/ha (Stellaria media (STEME); [8]): 90%

COC(=O)CCC(=O)N1CSc2cc(C)c(-c3ccccc3F)nc21 [Example I-010]
pre-emergence activity against DIGSA in % ([1]; application rate 320 g/ha): 100%
pre-emergence activity against AMARE in % ([6]; application rate 320 g/ha): 90%
post-emergence activity against DIGSA in % ([3]; application rate 1280 g/ha): 90%
post-emergence activity against ECHCG in % ([4]; application rate 1280 g/ha): 90%
post-emergence activity against AMARE in % [5]: 80%
post-emergence activity against STEME in % (Stellaria media (STEME); application rate 320 g/ha): 90%

BN1CSc2cc(Br)c(-c3ccccc3C)nc21 [Example I-011]
post-emergence activity against TRZAS in % ([2]; application rate 80 g/ha): 0%
pre-emergence activity against GLXMA in % (crop plant damage) (Glycine max (GLXMA); application rate 320 g/ha): 0%
post-emergence activity against ECHCG in % ([4]; application rate 1280 g/ha): 90%
post-emergence activity against STEME in % (Stellaria media (STEME); application rate 1280 g/ha): 90%

Clc1ccccc1-c1nc2c(cc1Br)SCN2 [Example I-041, 6-bromo-5-(2-chlorophenyl)-2,3-dihydro[1,3]thiazolo[4,5-b]pyridine]
pest or weed control at 1280 g/ha ([1]; application rate 1280 g/ha): 100%
pest or weed control at 80 g/ha ([6]; application rate 80 g/ha): 90%
percent crop plant damage (wheat, post-emergence) at 320 g/ha [2, 9]: 0%
pest or weed control at 320 g/ha ([4]; Echinochloa crus-galli, 504 h, application rate 320 g/ha, read-out: post-emergence activity against ECHCG in %): 100%
pest or weed control at 320 g/ha (Stellaria media (STEME); Stellaria media, post-emergence, 504 h, application rate 320 g/ha, read-out: post-emergence activity against STEME in %): 90%

CCc1ccccc1-c1nc2c(cc1C)[S+]([O-])CN2 (stereo not drawn) [Example I-047]
pest or weed control at 1280 g/ha ([1]; application rate 1280 g/ha): 100%
pest or weed control at 80 g/ha ([6]; application rate 80 g/ha): 90%
percent crop plant damage (wheat, post-emergence) at 320 g/ha [2, 9]: 0%
pre-emergence activity against GLXMA in % (crop plant damage) (Glycine max (GLXMA); application rate 320 g/ha): 20%
pest or weed control at 1280 g/ha [4, 7]: 90%
pest or weed control at 1280 g/ha (Stellaria media (STEME); [8]): 90%

CCS(=O)(=O)N1C[S+]([O-])c2cc(C)c(-c3ccccc3C)nc21 (stereo not drawn) [Example I-074]
pest or weed control at 1280 g/ha ([1]; application rate 1280 g/ha): 100%
pest or weed control at 80 g/ha ([6]; application rate 80 g/ha): 90%
percent crop plant damage (wheat, post-emergence) at 80 g/ha ([2]; Triticum aestivum, 504 h, application rate 80 g/ha, read-out: post-emergence activity against TRZAS in %): 0%
pest or weed control at 1280 g/ha ([3]; Digitaria sanguinalis, post-emergence, 504 h, application rate 1280 g/ha, read-out: post-emergence activity against DIGSA in %): 90%
pre-emergence activity against GLXMA in % (crop plant damage) (Glycine max (GLXMA); application rate 320 g/ha): 0%
pest or weed control at 1280 g/ha (Stellaria media (STEME); [8]): 90%

Cc1cc2c(nc1-c1ccccc1F)N(C(=O)C1(C)CC(Cl)=NO1)CS2 (stereo not drawn) [Example I-083]
pre-emergence activity against DIGSA in % ([1]; application rate 320 g/ha): 100%
pre-emergence activity against AMARE in % ([6]; application rate 320 g/ha): 90%
post-emergence activity against DIGSA in % ([3]; application rate 1280 g/ha): 90%
post-emergence activity against ECHCG in % ([4]; application rate 1280 g/ha): 90%
post-emergence activity against AMARE in % [5]: 80%
post-emergence activity against STEME in % (Stellaria media (STEME); application rate 320 g/ha): 90%

Cc1cc2c(nc1-c1ccccc1)N(C(=O)C1(C)CC(Cl)=NO1)CS2 (stereo not drawn) [Example I-088]
pre-emergence activity against DIGSA in % ([1]; application rate 320 g/ha): 100%
pre-emergence activity against AMARE in % ([6]; application rate 320 g/ha): 90%
post-emergence activity against TRZAS in % ([2]; application rate 320 g/ha): 20%
post-emergence activity against DIGSA in % ([3]; application rate 1280 g/ha): 100%
post-emergence activity against ECHCG in % ([4]; application rate 320 g/ha): 90%
post-emergence activity against STEME in % (Stellaria media (STEME); application rate 320 g/ha): 90%

Cc1cc2c(nc1-c1ccccc1F)N(C(=O)C13CCCC1C(Cl)=NO3)CS2 (stereo not drawn) [Example I-104]
pre-emergence activity against DIGSA in % ([1]; application rate 320 g/ha): 100%
pre-emergence activity against AMARE in % ([6]; application rate 80 g/ha): 80%
post-emergence activity against TRZAS in % ([2]; application rate 80 g/ha): 0%
post-emergence activity against DIGSA in % ([3]; application rate 1280 g/ha): 90%
post-emergence activity against ECHCG in % ([4]; application rate 320 g/ha): 90%
post-emergence activity against STEME in % (Stellaria media (STEME); application rate 320 g/ha): 90%

Cc1cc2c(nc1-c1cccc(C)c1F)NCS2 [Example I-113]
pre-emergence activity against DIGSA in % ([1]; application rate 320 g/ha): 100%
post-emergence activity against TRZAS in % ([2]; application rate 320 g/ha): 20%
post-emergence activity against DIGSA in % ([3]; application rate 320 g/ha): 90%
pre-emergence activity against GLXMA in % (crop plant damage) (Glycine max (GLXMA); application rate 320 g/ha): 10%
post-emergence activity against STEME in % (Stellaria media (STEME); application rate 1280 g/ha): 90%

Cc1cc2c(nc1-c1ccccc1F)N(S(=O)(=O)Cc1ccc(F)cc1)CS2 [Example I-122]
pre-emergence activity against DIGSA in % ([1]; application rate 320 g/ha): 100%
post-emergence activity against TRZAS in % ([2]; application rate 80 g/ha): 20%
post-emergence activity against DIGSA in % ([3]; application rate 1280 g/ha): 90%
pre-emergence activity against GLXMA in % (crop plant damage) (Glycine max (GLXMA); application rate 80 g/ha): 10%
post-emergence activity against ECHCG in % ([4]; application rate 1280 g/ha): 100%
post-emergence activity against STEME in % (Stellaria media (STEME); application rate 1280 g/ha): 90%
